Experimental data reported in patent US7727980B2, “Tricyclic androgen receptor modulator compounds and methods” (priority 2001, dated 2010).
Where two headings read alike, the source gives them in different places.

Assays:
human AR [1] = molecular target: T1, human AR (Homo sapiens, UniProt P10275); assay: AR whole cell competitive binding assay (3H-DHT), transfected COS-1 cells; set-up: expressed in transfected cells; transient transfection with pRShAR
T1 sequence (P10275 1-920): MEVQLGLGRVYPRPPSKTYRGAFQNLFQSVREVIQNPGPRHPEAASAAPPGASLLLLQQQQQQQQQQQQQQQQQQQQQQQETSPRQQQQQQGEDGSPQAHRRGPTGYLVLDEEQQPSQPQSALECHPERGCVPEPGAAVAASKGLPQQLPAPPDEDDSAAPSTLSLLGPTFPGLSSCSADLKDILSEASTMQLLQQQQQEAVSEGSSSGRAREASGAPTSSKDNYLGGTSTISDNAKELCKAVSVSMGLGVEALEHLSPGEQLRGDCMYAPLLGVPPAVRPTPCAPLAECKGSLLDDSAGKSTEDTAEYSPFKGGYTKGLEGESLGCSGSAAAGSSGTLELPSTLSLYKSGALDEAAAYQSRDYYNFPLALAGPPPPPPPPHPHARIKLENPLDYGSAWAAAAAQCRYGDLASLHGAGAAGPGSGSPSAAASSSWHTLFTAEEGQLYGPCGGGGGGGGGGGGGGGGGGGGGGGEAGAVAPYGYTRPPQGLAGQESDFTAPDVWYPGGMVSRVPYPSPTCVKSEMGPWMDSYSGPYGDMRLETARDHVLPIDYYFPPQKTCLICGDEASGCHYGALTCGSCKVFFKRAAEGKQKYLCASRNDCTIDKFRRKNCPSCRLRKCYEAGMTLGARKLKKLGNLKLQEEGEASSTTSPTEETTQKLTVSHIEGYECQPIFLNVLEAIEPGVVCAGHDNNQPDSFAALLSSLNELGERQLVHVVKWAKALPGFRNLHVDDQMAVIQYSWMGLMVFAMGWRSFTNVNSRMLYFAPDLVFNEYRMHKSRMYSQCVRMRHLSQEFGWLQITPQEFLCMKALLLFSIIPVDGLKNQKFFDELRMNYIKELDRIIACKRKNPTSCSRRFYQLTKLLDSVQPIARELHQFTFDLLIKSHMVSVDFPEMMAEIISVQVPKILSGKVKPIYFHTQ
Procedure: AR Binding: For the whole cell binding assay, COS-1 cells in 96-well microtiter plates containing DMEM-10% FBS were transfected as described above with the following plasmid DNA: pRShAR (2 ng/well), pRS-β-Gal (50 ng/well) and pGEM (48 ng/well). Six hours after transfection, media was removed, the cells were washed with PBS and fresh media was added. The next day, the media was changed to DMEM-serum free to remove any endogenous ligand that might be complexed with the receptor in the cells.
Three replicates were used for each sample. […] The remaining media was removed, the cells were washed three times with PBS to remove unbound ligand and cells were lysed with a Triton X-100-based buffer.
For the saturation analyses, the difference between the total binding and the nonspecific binding, normalized by the β-Gal rate, was defined as specific binding. […] The Ki values were determined by application of the Cheng-Prusoff equation to the IC50 values, where: […]
After correcting for non-specific binding, IC50 values were determined. […] The IC50 value was determined graphically from a log-logit plot of the data. The Ki values were determined by application of the Cheng-Prusoff equation to the IC50 values, the labeled ligand concentration and the Kd of the labeled ligand.

human AR [2] = molecular target: T1, human AR; assay: Co-transfection assay, AR agonist activity, CV-1 cells; format: cell-based; set-up: expressed in transfected cells; host or cells: CV-1 cells (African green monkey kidney fibroblasts), transient transfection with pRShAR; conditions: for AR Agonist CV-1 Cells Efficacy (%): percent maximal response relative to reference agonist DHT; for EC50: AR Agonist CV-1 Cells Potency (nM), agonist potency or EC50
Description: (§1) The co-transfection assay provides a method for identifying functional agonists and partial agonists which mimic, or antagonists which inhibit, the effect of native hormones and quantifying their activity for responsive IR proteins. In this regard, the co-transfection assay mimics an in vivo system in the laboratory. Importantly, activity in the co-transfection assay correlates very well with known in vivo activity, such that the co-transfection assay functions as a qualitative and quantitative predictor of a tested compounds in vivo pharmacology. See, e.g., T. Berger et al. 41 J. Steroid Biochem. Molec.
(§2) In the co-transfection assay, a cloned cDNA for an IR (e.g., human PR, AR or GR) under the control of a constitutive promoter (e.g., the SV 40 promoter) is introduced by transfection (a procedure to induce cells to take up foreign genes) into a background cell substantially devoid of endogenous IRs. This introduced gene directs the recipient cells to make the IR protein of interest. A second gene is also introduced (co-transfected) into the same cells in conjunction with the IR gene. This second gene, comprising the cDNA for a reporter protein, such as firefly luciferase (LUC), controlled by an appropriate hormone responsive promoter containing a hormone response element (HRE). This reporter plasmid functions as a reporter for the transcription-modulating activity of the target IR. Thus, the reporter acts as a surrogate for the products (mRNA then protein) normally expressed by a gene under control of the target receptor and its native hormone.
(§3) The co-transfection assay can detect small molecule agonists or antagonists of target IRs. Exposing the transfected cells to an agonist ligand compound increases reporter activity in the transfected cells. This activity can be conveniently measured, e.g., by increasing luciferase production, which reflects compound-dependent, IR-mediated increases in reporter transcription. […] To detect antagonists, the co-transfection assay is carried out in the presence of a constant concentration of an agonist to the target IR (e.g., progesterone for PR) known to induce a defined reporter signal. Increasing concentrations of a suspected antagonist will decrease the reporter signal (e.g., luciferase production). The co-transfection assay is therefore useful to detect both agonists and antagonists of specific IRs. Furthermore, it determines not only whether a compound interacts with a particular IR, but whether this interaction mimics (agonizes) or blocks (antagonizes) the effects of the native regulatory molecules on target gene expression, as well as the specificity and strength of this interaction.
(§4) CV-1 cells (African green monkey kidney fibroblasts) were cultured in the presence of Dulbecco's Modified Eagle Medium (DMEM) supplemented with 10% charcoal resin-stripped fetal bovine serum then transferred to 96-well microtiter plates one day prior to transfection.
(§5) The reporter plasmid, MTV-LUC, contains the cDNA for firefly luciferase (LUC) under control of the mouse mammary tumor virus (MTV) long terminal repeat, a conditional promoter containing an androgen response element. See e.g., Berger et al. supra. In addition, pRS-β-Gal, coding for constitutive expression of E. coli β-galactosidase (β-Gal), was included as an internal control for evaluation of transfection efficiency and compound toxicity.
(§6) Six hours after transfection, media was removed and the cells were washed with phosphate-buffered saline (PBS). […] Three to four replicates were used for each sample. Transfections and subsequent procedures were performed on a Biomek 1000 automated laboratory work station.
(§7) After 40 hours, the cells were washed with PBS, lysed with a Triton X-100-based buffer and assayed for LUC and β-Gal activities using a luminometer or spectrophotometer, respectively. For each replicate, the normalized response (NR) was calculated as: LUC response/β-Gal rate • where β-Gal rate=β-Gal·1×10^−5/β-Gal incubation time.

human AR [3] = molecular target: T1, human AR; assay: Co-transfection assay, AR antagonist activity in presence of DHT, CV-1 cells; format: cell-based; set-up: expressed in transfected cells; host or cells: CV-1 cells (African green monkey kidney fibroblasts), transient transfection with pRShAR; conditions: for AR Antagonist CV-1 Cells Efficacy (%): percent maximal inhibition, DHT at its EC50 concentration
Description: as §1, §2, §3, §4, §5, §6, §7

[4] = AR Binding Ki (nM), COS-1 cells, 1 nM 3H-DHT, Cheng-Prusoff from IC50
[5] = AR Antagonist CV-1 Cells Potency (nM), CV-1 cells, antagonist potency or IC50, DHT at its EC50 concentration

SMILES | Ki (human AR [1]; [4]) | AR Agonist CV-1 Cells Efficacy (%) (human AR [2]) | IC50 (human AR [3]; [5]) | AR Antagonist CV-1 Cells Efficacy (%) (human AR [3]; CV-1 cells) | EC50 (human AR [2]) | Ki (human AR [1]; read-out: AR Binding Ki) | IC50 (human AR [3])
O=c1cc(C(F)(F)F)c2c3c(ccc2[nH]1)N(Cc1ccoc1)C1CCCC31 (racemic) [Compound 126, (±)-4c,5,6,7,7a(cis),8-Hexahydro-8-(3-furanylmethyl)-4-trifluoromethyl-cyclopentano[g]pyrrolo[3,2-f]quinolin-2(1H)-one] | 2.3 nM | 53% | > 10000 nM | na (na = not active (i.e. efficacy of <20 and potency of >10,000)) | – | – | –
O=c1cc(C(F)(F)F)c2c3c(ccc2[nH]1)N(Cc1ccsc1)C1CCCC31 (racemic) [Compound 127, (±)-4c,5,6,7,7a(cis),8-Hexahydro-8-(3-thiophenemethyl)-4-trifluoromethyl-cyclopentano[g]pyrrolo[3,2-f]quinolin-2(1H)-one] | 6.3 nM | 66% | > 10000 nM | na (na = not active (i.e. efficacy of <20 and potency of >10,000)) | 25 nM | – | –
O=c1cc(C(F)(F)F)c2c3c(ccc2[nH]1)N(CC(F)(F)Cl)C1CCCC31 (racemic) [Compound 129, (±)-4c,5,6,7,7a(cis),8-Hexahydro-8-(2,2,2-chlorodifluoroethyl)-4-trifluoromethylcyclopentano[g]pyrrolo[3,2-f]quinolin-2(1H)-one] | 3.2 nM | 79% | > 10000 nM | na (na = not active (i.e. efficacy of <20 and potency of >10,000)) | 1.6 nM | – | –
O=c1cc(C(F)(F)F)c2c3c(ccc2[nH]1)N(CC(F)(F)F)C1CCCCC31 (racemic) [Compound 132, (±)-4c,5,6,7,8,8a(cis),9-Heptahydro-9-(2,2,2-trifluoroethyl)-4-trifluoro-methyl-9H-cyclohexano[g]pyrrolo[3,2-f]quinolin-2(1H)-one] | 21 nM | 70% | > 10000 nM | na (na = not active (i.e. efficacy of <20 and potency of >10,000)) | 4.8 nM | – | –
CCC1C(C)c2c(ccc3[nH]c(=O)cc(C(F)(F)F)c23)N1CC(F)(F)F (racemic) [Compound 134, (±)-5,6-cis-Dihydro-6-ethyl-5-methyl-7-(2,2,2-trifluoroethyl)-4-trifluoromethyl-7H-pyrrolo[3,2-f]quinolin-2(1H)-one] | 6.8 nM | 70% | > 10000 nM | na (na = not active (i.e. efficacy of <20 and potency of >10,000)) | 4.2 nM | – | –
CC1C(c2ccc(N(C)C)cc2)c2c(ccc3[nH]c(=O)cc(C(F)(F)F)c23)N1CC(F)(F)F (racemic) [Compound 137, (±)-5,6-cis-Dihydro-5-(4-dimethylaminophenyl)-6-methyl-7-(2,2,2-trifluoroethyl)-4-trifluoromethyl-7H-pyrrolo[3,2-f]quinolin-2(1H)-one] | – | 77% | – | na (na = not active (i.e. efficacy of <20 and potency of >10,000)) | 145 nM | 107 nM | > 10000 nM
O=c1cc(C(F)(F)F)c2c3c(ccc2[nH]1)N(CC(F)(F)F)CC3c1ccccc1 (racemic) [Compound 141, (±)-5,6-Dihydro-5-phenyl-7-(2,2,2-trifluoroethyl)-4-trifluoromethyl-7H-pyrrolo[3,2-f]quinolin-2(1H)-one] | 97 nM | 46% | 34 nM | 44% | 86 nM | – | –
CCCC1C(CC)c2c(ccc3[nH]c(=O)cc(C(F)(F)F)c23)N1CC(F)(F)F (racemic) [Compound 146, (±)-5,6-Dihydro-5-ethyl-6-propyl-7-(2,2,2-trifluoroethyl)-4-trifluoromethyl-7H-pyrrolo[3,2-f]quinolin-2(1H)-one] | 75 nM | 38% | 1 nM | 66% | 49 nM | – | –
CCC1C(C)c2c(ccc3[nH]c(=O)ccc23)N1CC(F)(F)F (racemic) [Compound 149, (±)-5,6-cis-Dihydro-5-methyl-6-ethyl-7-(2,2,2-trifluoroethyl)-7H-pyrrolo[3,2-f]quinolin-2(1H)-one] | – | na (na = not active (i.e. efficacy of <20 and potency of >10,000)) | – | 81% | > 10000 nM | 127 nM | 25 nM
CCC1CCOc2c1ccc1[nH]c(=O)cc(C)c21 (racemic) [Compound 215, (±)-7,8-Dihydro-8-ethyl-4-methyl-6H-pyrano[2,3-f]quinolin-2(1H)-one] | 47 nM | 28% | – | 77% | 2070 nM | – | 17 nM
